The text below walks through data of patent publication US10751319B2, “Collection device and methods for use” (CRITITECH, INC., priority 2015, dated 2020).

Holding throughout (format): physicochemical
One data set in a line: Bulk density. To be noted: room temperature. On the procedure: The mass of the drug was measured to a nearest 0.1 mg, the volume was determined to the nearest 0.1 mL and the density calculated.
The nature of data set [1]: Docetaxel dissolution study, USP Apparatus II (Paddle). The following applies: methanol/water 15/85, 37° C., pH 7, 75 rpm. On the procedure:
At 5, 15, 30, 60, 120 and 225 minutes, a 5 mL aliquot was removed, filtered through a 0.22 μm filter, and analyzed on a UV/VIS spectrophotometer at 232 nm. Absorbance values of the samples were compared to those of standard solutions prepared in dissolution media to determine the amount of material dissolved.

Data set [2] in a line: BET analysis (surface area). The following applies: listed as raw paclitaxel. The procedure:
A known mass between 200 and 300 mg of the analyte was added to a 30 mL sample tube. The loaded tube was then mounted to a Porous Materials Inc. SORPTOMETER®, model BET-202A. The automated test was then carried out using the BETWIN® software package and the surface area of each sample was subsequently calculated.

“And” between values parts separate entries of the source, which are not always exact repeats. Identical values can stand only once.

As for `CC(=O)O[C@@]12CO[C@@H]1C[C@H](O)[C@@]1(C)C(=O)[C@H](O)C3=C(C)[C@@H](OC(=O)[C@H](O)[C@@H](NC(=O)OC(C)(C)C)c4ccccc4)C[C@@](O)([C@@H](OC(=O)c4ccccc4)[C@H]21)C3(C)C` [Docetaxel Raw Material, docetaxel], the “Bulk Density” value in “Bulk density” came out at 0.24 g/mL. The Dissolution was 0.0% in data set [1] (0 minutes); 3.2% in data set [1] (5 minutes); 6.9% in data set [1] (15 minutes); 11% and 11.2% in data set [1] (30 minutes); 16.4% in data set [1] (60 minutes); 22.4% in data set [1] (120 minutes). Also, the Dissolution in data set [1] (225 minutes) was 26.8%.

Regarding `CC(=O)O[C@H]1C(=O)[C@@]2(C)[C@H]([C@H](OC(=O)c3ccccc3)[C@]3(O)C[C@H](OC(=O)[C@H](O)[C@@H](NC(=O)c4ccccc4)c4ccccc4)C(C)=C1C3(C)C)[C@]1(OC(C)=O)CO[C@@H]1C[C@@H]2O` [Paclitaxel Raw Material, paclitaxel], the Surface area in data set [2] is 7.25 m^2/g. In “Bulk density”, the “Bulk Density” value came out at 0.26 g/mL.
